Article PMC7794245, “Potent DNA gyrase inhibitors bind asymmetrically to their target using symmetrical bifurcated halogen bonds” (Nature Communications, 2021)
In brackets after ≈: the same amount, converted by molar mass. Read-outs that look alike come from different tables or passages of the source.

Assays:
[1] = system: S. aureus (ATCC 29213); experiment: Broth microdilution MIC, S. aureus; format: cell-based; details: Staphylococcus aureus, ATCC29213, 20 h, 37 °C
Method: (§1) Antimicrobial assays were performed by the broth microdilution method in 96-well plate format according to the Clinical and Laboratory Standards Institute guidelines[46] and European Committee on Antimicrobial Susceptibility Testing recommendations. First, bacterial suspensions of specific bacterial strains was prepared to obtain density equivalent to 0.5 McFarland turbidity standard, followed by dilution with cation-adjusted Mueller Hinton broth with TES (Thermo Fisher Scientific), to obtain a final inoculum of 10^5 colony-forming units/mL. Compounds were dissolved in DMSO and twofold dilutions were prepared, then inoculum was added and the mixture was incubated for 20 h at 37 °C. After incubation, the MIC values were read off by visual assessment as the lowest dilution of compound showing no turbidity. The MICs were determined against S. aureus (ATCC 29213), MRSA (NCTC12493), E. coli (ATCC 25922), E. coli D22, and E. coli N43 bacterial strains. Tetracycline was used as a positive control on every assay plate, displaying MICs of 0.5 and 1 μg/mL for S. aureus and E. coli, respectively.

[2] = system: E. coli (ATCC 25922); experiment: Broth microdilution MIC, E. coli; format: cell-based; details: Escherichia coli, ATCC25922, 20 h, 37 °C
Method: as §1

[3] = target: T1, S. aureus DNA gyrase (Staphylococcus aureus, UniProt P20831); experiment: Gel-based S. aureus Gyrase Supercoiling assay (Inspiralis); format: biochemical
T1 construct: purchased Inspiralis (Norwich, UK)
Method: gyrase supercoiling assays
In all experiments, the activity of the enzyme was determined prior to the testing of the compounds and 1 U defined as the amount of enzyme required to fully supercoil the substrate. This amount of enzyme was used in all subsequent assays. The final DMSO concentration in all the reactions was 1% (v/v). Compounds were serially diluted in DMSO and added to the reaction before the addition of the […]
Staphylococcus aureus gyrase supercoiling assay
1 U of DNA gyrase was incubated with 0.5 μg of relaxed pBR322 DNA in a 30 μl reaction at 37 °C for 30 min under the following conditions: 40 mM HEPES·KOH (pH 7.6), 10 mM magnesium acetate, 10 mM DTT, 2 mM ATP, 500 mM potassium glutamate and 0.05 mg/ml BSA. Each reaction was stopped by the addition of 30 μl chloroform/iso-amyl alcohol (24:1) and 20 μl Stop Dye (40% sucrose, 100 mM Tris.HCl ( pH 7.5), 10 mM EDTA, 0.5 μg/ml bromophenol blue), before being loaded on a 1.0% TAE (Tris.acetate […], EDTA […]). Gels run at 70V for 3 hours.
Data acquisition and analysis
Bands were visualised by ethidium staining for 10 min, destained for 10 min in water and bands were analysed by gel documentation equipment (Syngene, Cambridge, UK) and quantitated using Syngene Gene Tools software. Raw gel data (fluorescent band volumes) collected from Syngene, GeneTools gel analysis software were converted to a % of the 100% control (the fully supercoiled or relaxed […]
global curve fit non-linear regression tool was used to calculate IC50 data using the following equation:
Equation: Exponential Decay, Single, 2 Parameter f = ae−bx
(1 picture or pasted object on this page, not shown here)
Target sequence in this assay (P20831 whole entry): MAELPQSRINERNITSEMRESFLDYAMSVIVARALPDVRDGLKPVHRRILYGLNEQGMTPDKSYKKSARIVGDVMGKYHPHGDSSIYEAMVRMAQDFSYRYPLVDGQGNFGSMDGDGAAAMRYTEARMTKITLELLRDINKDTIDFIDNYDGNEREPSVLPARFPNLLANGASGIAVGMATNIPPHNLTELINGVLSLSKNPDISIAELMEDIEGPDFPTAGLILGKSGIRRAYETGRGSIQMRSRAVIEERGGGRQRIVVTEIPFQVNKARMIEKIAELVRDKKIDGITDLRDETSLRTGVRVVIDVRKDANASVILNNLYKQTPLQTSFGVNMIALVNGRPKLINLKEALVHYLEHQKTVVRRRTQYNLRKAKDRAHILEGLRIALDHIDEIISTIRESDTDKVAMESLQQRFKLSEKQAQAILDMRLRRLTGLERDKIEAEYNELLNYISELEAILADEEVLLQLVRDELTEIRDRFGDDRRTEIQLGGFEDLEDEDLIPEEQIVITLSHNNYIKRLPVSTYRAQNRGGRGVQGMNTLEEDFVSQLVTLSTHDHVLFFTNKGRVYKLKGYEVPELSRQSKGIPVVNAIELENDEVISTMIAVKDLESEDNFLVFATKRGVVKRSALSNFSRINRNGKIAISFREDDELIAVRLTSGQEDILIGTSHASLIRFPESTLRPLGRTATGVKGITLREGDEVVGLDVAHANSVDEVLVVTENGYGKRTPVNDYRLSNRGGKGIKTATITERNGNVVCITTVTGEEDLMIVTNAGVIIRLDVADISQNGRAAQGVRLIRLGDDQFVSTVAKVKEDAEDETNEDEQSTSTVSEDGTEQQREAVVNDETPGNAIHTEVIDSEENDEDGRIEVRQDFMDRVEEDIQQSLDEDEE
Target sequence in this assay (P0A0K8 whole entry, further chain): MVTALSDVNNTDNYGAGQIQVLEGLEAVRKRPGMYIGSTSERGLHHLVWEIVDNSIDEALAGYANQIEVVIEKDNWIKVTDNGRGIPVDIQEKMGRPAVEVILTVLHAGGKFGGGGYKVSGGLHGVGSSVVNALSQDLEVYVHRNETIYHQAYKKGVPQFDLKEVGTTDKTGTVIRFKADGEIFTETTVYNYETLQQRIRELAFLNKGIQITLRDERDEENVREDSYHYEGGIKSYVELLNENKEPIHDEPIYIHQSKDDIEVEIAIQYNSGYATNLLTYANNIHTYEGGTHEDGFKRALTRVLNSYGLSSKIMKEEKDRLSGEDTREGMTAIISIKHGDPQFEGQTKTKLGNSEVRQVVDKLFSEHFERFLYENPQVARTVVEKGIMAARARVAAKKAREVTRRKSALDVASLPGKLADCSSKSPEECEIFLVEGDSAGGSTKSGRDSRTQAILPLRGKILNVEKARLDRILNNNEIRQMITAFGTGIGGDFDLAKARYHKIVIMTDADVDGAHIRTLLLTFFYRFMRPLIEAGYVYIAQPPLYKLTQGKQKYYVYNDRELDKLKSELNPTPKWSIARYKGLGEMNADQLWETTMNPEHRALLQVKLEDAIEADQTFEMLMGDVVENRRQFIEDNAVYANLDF

[4] = system: HUVEC; experiment: Metabolic activity assessment (CellTiter 96 Aqueous One), HUVEC; format: cell-based; details: Homo sapiens, 72 h treatment, mean ± SD
Method: (§2) Supplementary Table 7. Results of cytotoxicity studies.
(§3) Metabolic activity assessment
(§4) Cells of the HepG2 line ( ATCC® HB-8065™) and HUVEC ( ATCC® CRL-1730™) were cultured in Dulbecco’s Modified Eagle Medium (DMEM; Sigma-Aldrich, St. Louis, MO, USA) supplemented with 10% heat -deactivated FBS (Gibco, Grand Island/NY, USA), 2 mM L -glutamine, 100 U/mL penicillin, 100 µg/mL streptomycin (all from Sigma -Aldrich) in a humidified chamber at 37 °C and 5% CO2. The experiments were carried out on passages 7 - 9 for both cell lines. The tested compounds were dissolved in DMSO and further diluted in culture medium to a desired final concentration. […]
(§5) 10^4 cells/mL (100 µL/well) and after attachm ent treated with seven different concentration of the selected compounds or corresponding vehicle as control. The metabolic activity was assessed after 72 h treatment using the CellTiter 96 Aqueous One Solution Cell Proliferation Assay (Promega, Madison/WI, USA), in accordance with the manufacturer’s instructions .7 The absorbance was measured at 492 nm on an automated microplate reader BioTek Synergy HT (BioTek Instruments, Inc.). Data are presented as IC 50 value (mean ± SD) from two independent experiments , each conducted in duplicate or triplicate. IC 50 values were calculated by a non -linear regression model using Graph Pad Prism 7 software. […]

[5] = system: HepG2; experiment: Metabolic activity assessment (CellTiter 96 Aqueous One), HepG2; format: cell-based; details: Homo sapiens, 72 h treatment, mean ± SD
Method: as §2, §3, §4, §5

[6] = target: T2, hERG potassium channel (Homo sapiens, UniProt Q12809); experiment: FP-based hERG binding assay (Invitrogen kit)
T2 construct: purchased Invitrogen (kit); assay run at TCG Lifesciences Pvt; Ltd. India
Method: Supplementary Table 7. Results of cytotoxicity studies. […]
Cardiovascular hERG inhibition
Cardiovascular safety profile was entirely outsourced. hERG screening was performed at TCG
Lifesciences Pvt. Ltd. India with FP -based hERG binding assay (Invitrogen kit).

[7] = target: T1, S. aureus DNA gyrase; experiment: Gyrase Supercoiling High Throughput Plate Assay (fluorescence), S. aureus; format: biochemical; details: fluorescence-based high throughput plate assay
Method: A Gyrase Supercoiling High Throughput Plate Assay kit, purchased from Inspiralis (Norwich. UK), was used to determine IC50 values of compounds on S. aureus and E. coli gyrase. […] Biotinylated oligonucleotide in wash buffer was immobilized onto the wells, and the excess oligonucleotide was washed off with wash buffer and ultrapure water. […] The reactions were stopped by adding the TF buffer (50 mM NaOAc (pH 4.7), 50 mM NaCl, and 50 mM MgCl2) to allow the triplex formation (biotin–oligonucleotide–plasmid) for an additional 30 min. Afterward, the unbound plasmid was washed off using TF buffer, and the solution of Promega Diamond dye in T10 buffer (10 mM Tris-HCl (pH 8.0), 1 mM EDTA) was added. […] Preliminary screening was performed at four inhibitor concentrations of 100, 10, 1, and 0.1 μM. […] IC50 was calculated using nonlinear regression-based fitting of inhibition curves using log [inhibitor] versus response-variable slope (four parameters)—symmetrical equation in the GraphPad Prism 6.0 software (GraphPad Software, La Jolla, CA, USA, www.graphpad.com). IC50 values represent the mean of two to four independent measurements.
Target sequence in this assay (P20831 whole entry): as the sequence (P20831 whole entry) above
Target sequence in this assay (P0A0K8 whole entry partner): as the sequence (P0A0K8 whole entry, further chain) above

[8] = system: MRSA (NCTC12493); experiment: Broth microdilution MIC, MRSA; format: cell-based, S. aureus; details: Staphylococcus aureus, 20 h, 37 °C
Method: as §1

T2 sequence (Q12809 whole entry): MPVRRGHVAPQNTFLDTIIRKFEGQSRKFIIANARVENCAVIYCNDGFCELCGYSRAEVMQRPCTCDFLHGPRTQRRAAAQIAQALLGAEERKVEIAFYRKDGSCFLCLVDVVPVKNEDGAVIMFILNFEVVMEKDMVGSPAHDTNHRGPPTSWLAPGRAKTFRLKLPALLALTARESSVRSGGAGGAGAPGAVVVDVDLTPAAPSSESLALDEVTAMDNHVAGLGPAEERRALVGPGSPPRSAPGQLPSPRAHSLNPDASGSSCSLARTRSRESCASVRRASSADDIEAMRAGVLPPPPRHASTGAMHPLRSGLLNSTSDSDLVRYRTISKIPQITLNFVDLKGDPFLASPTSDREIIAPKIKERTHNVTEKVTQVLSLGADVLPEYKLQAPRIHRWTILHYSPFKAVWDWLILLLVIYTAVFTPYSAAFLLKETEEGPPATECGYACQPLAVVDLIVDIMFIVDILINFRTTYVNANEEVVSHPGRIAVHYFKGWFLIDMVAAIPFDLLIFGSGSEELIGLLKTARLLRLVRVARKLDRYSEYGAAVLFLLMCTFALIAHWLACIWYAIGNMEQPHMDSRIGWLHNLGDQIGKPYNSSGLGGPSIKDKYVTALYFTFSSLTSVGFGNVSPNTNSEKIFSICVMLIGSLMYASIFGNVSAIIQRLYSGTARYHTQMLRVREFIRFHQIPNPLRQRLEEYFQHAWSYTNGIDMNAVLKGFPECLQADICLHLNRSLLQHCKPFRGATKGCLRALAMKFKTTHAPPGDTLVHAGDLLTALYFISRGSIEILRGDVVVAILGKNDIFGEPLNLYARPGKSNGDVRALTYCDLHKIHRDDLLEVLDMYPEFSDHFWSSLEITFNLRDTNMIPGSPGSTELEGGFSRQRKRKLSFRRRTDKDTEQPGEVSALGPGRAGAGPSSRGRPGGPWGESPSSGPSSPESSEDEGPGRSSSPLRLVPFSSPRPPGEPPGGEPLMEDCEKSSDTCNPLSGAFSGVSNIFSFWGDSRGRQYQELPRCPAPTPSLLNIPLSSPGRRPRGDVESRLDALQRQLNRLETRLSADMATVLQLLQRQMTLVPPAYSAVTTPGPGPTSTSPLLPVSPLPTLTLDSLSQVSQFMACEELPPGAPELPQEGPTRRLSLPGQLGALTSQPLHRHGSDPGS

SMILES | IC50 [4] [µM] | IC50 [5] [µM] | IC50 [7] [µM] | IC50 [6] [µM] | also measured
CN(C)[C@@H]1C(O)=C(C(N)=O)C(=O)[C@@]2(O)C(O)=C3C(=O)c4c(O)cccc4[C@@](C)(O)[C@H]3C[C@@H]12 [Tetracycline, reference compound] |  |  |  |  | MIC [1]: 0.5 mg/L (≈ 1.13 µM); MIC [2]: 1 mg/L (≈ 2.25 µM)
COc1ccc2nccc(CCN3CCC(NCc4ccc(I)cc4)CC3)c2n1 [Compound 6] | 19 ± 0.85 | 8.47 ± 0.09 |  |  | IC50 ([3]; read-out: S. aureus gyrase supercoiling IC50 Assay 1, gel-based assay, assay 1): 0.013 µM; IC50 ([3]; read-out: S. aureus gyrase supercoiling IC50 Assay 2, gel-based assay, assay 2): 0.009 µM; IC50 ([6]; human, FP-based hERG binding assay kit (Invitrogen)): 0.18 µM
COc1ccc2nccc(CCN3CCC(NCc4ccc(N(C)C)cc4)CC3)c2n1 [Compound 9] | 23.85 ± 0.09 | 10.03 ± 0.06 | 0.067 | 2.11 | MIC [1]: 0.125 mg/L (≈ 0.298 µM); MIC [8]: 0.25 mg/L (≈ 0.596 µM)
COc1ccc2nccc(CCN3CCC(NCc4ccc(F)cc4)CC3)c2n1 [Compound 3] | > 50 | 12.7 ± 0.21 | 0.55 | 0.59 | 
COc1ccc2nccc(CCN3CCC(NCc4ccc(Br)cc4)CC3)c2n1 [Compound 5] | 25.42 ± 0.01 | 9.37 ± 0.07 |  | 0.29 | IC50 ([3]; IC50 S. aureus DNA gyrase supercoiling, gel-based assay): 0.007 µM; IC50 ([3]; S. aureus gyrase supercoiling IC50 Assay 1, gel-based assay, assay 1): 0.007 µM; IC50 ([3]; S. aureus gyrase supercoiling IC50 Assay 2, gel-based assay, assay 2): 0.007 µM; IC50 ([3]; S. aureus gyrase supercoiling IC50 Average, gel-based assay, average of assay 1 and 2): 0.007 µM; IC50 ([3]; S. aureus inhibition (DNA supercoiling IC50), as quoted in point-by-point response): 0.007 µM; IC50 ([3]; S. aureus inhibition (DNA supercoiling IC50), as quoted in reviewer report): 0.007 µM
COc1ccc2nccc(CCN3CCC(NCc4ccccc4)CC3)c2n1 [Compound 2] | 54.1 ± 3.45 | 17.7 ± 2.16 | 1.02 | 1.05 | 
COc1ccc2nccc(CCN3CCC(NCc4ccc(C(N)=O)cc4)CC3)c2n1 [Compound 8] | > 50 |  |  | 13.4 | 
COc1ccc2nccc(CCN3CCC(NCc4ccc(Cl)cc4)CC3)c2n1 [Compound 4] | 27 ± 0.38 | 10.16 ± 0.1 |  | 0.27 | 
